What was measured:
Type in all cases: cell-based
[1] = tested on: HT22 cells; assay: Annexin V-PI detection by flow cytometry; conditions: BAPTA/AM co-treatment, annexin V-PI staining
Description: Apoptosis was detected with Annexin V staining kit (BD Biosciences, CA, USA). […] The number of apoptotic cells was quantified by flow cytometry (BD FACSAria III, CA, USA). Data acquisition and analysis were performed with CellQuest (BD Biosciences) from three independent experiments.

[2] = tested on: HT22 cells; assay: Cytoplasmic calcium dynamics (FLIPR Calcium 6); conditions: HT22 cells, TG or Aβ 30 μM
Description: Intracellular Ca^2+ dynamics were determined using the FLIPR Calcium 6 Assay Kit (Molecular Devices) according to the manufacturer's instructions. Briefly, HT22 was housed at 4 × 10^4 cells per well in a black-walled and clear-bottom 96 multi-well plate (Costar, MA, USA) and treated with Calcium 6 reagent for 1 h.

[3] = tested on: HT22 cells; assay: Cytotoxicity (MTT) assay; conditions: aggregated Aβ 30 μM
Description: Cytotoxicity was assessed using the MTT (5.0 mg/mL) assay. 4 × 10^3 HT22 cells per well were seeded in 96-well plates. After overnight incubation, cells were treated with Aβ aggregates (30 μM) for 48 h with or without the presence of HYP (20–80 μM). Cells were treated with DMSO as a control. Subsequently, MTT (10 μL) was added to each well for 4 h, followed by the addition of 100 μL of lysis buffer (10% SDS in 0.01 mol/L hydrochloric acid) and overnight incubation. The absorbance was measured at 570 nm the next day. The formula was calculated as a percentage of cell viability: Cell viability (%) = A (treatded) / A (control) × 100%. Data were obtained from three independent experiments in triplicate.

[4] = tested on: HT22 cells; assay: Fluo-3 detection of calcium ion concentration; conditions: after addition of Aβ
Description: 2 × 10^5 HT22 cells were incubated in 35 mm confocal dishes for 24 h at 37 °C in a CO^2 incubator. A 5 mM Fluo-3 AM stock solution was diluted with Hanks-Balanced Salt Solution (HBSS) to a 5 μM working solution and then added to the cells for 30 min at 37 °C. HT22 cells were washed three times with HEPES-buffered saline and then incubated in an imaging chamber at 37 °C for an additional 10 min. After the addition of 30 μM of Aβ aggregates in HBSS buffer, changes in cellular Ca^2+ levels were monitored by epifluorescence microscopy (Applied Precision DeltaVision Elite, Applied Precision, Inc., United States) using the real-time mode for tracking Fluo-3 changes for 5 min. The data inspection program provided by DeltaVision software was used to measure the intensity of Fluo-3 fluorescence.

[5] = tested on: HT22 cells; assay: Mitochondrial membrane potential by JC-1; conditions: CCCP positive control
Description: The mitochondrial membrane potential of HT22 stained with 5,5′,6,6′-tetrachloro-1,1′,3,3′-tetraethylbenzimidazolyl cobalt iodide (JC-1) was observed by laser scanning confocal microscopy.

CC(=O)OCOC(=O)CN(CC(=O)OCOC(C)=O)c1ccccc1OCCOc1ccccc1N(CC(=O)OCOC(C)=O)CC(=O)OCOC(C)=O [BAPTA/AM]
percentage of Aβ-induced cell death [1]: decrease the percentage of Aβ-induced cell death

C/C=C(/C)C(=O)O[C@H]1C(C)=C2[C@H]([C@@H]1OC(=O)CCCCCCC)[C@@](C)(OC(C)=O)C[C@H](OC(=O)CCC)[C@@]1(O)[C@H]2OC(=O)[C@@]1(C)O [TG, Thapsigargin, reference compound]
dynamic Ca2+ level, inducer alone [2]: prompt increase in Ca^2+ level

Aβ: Aβ (1–42) peptide incubated at 37 °C for 5 days to form Aβ aggregates [reference compound]
cell death by aggregated Aβ alone [3]: induced cell death in HT22 | Fluo-3 fluorescence intensity (Ca2+ level) [4]: significant increase of fluorescence intensity

Carbonyl cyanide m-chlorophenyl hydrazine [CCCP, reference compound]
mitochondrial membrane potential (JC-1) [5]: loss of membrane potential
